{"source": "patent US20230094076A1", "about": "“COMBINATION THERAPY” (GlaxoSmithKline Intellectual Property Development Limited, priority 2016, published 2023)", "key": {"[1]": {"biological_target": "PRMT3 (Homo sapiens, UniProt O60678)", "sequence (O60678 whole entry)": "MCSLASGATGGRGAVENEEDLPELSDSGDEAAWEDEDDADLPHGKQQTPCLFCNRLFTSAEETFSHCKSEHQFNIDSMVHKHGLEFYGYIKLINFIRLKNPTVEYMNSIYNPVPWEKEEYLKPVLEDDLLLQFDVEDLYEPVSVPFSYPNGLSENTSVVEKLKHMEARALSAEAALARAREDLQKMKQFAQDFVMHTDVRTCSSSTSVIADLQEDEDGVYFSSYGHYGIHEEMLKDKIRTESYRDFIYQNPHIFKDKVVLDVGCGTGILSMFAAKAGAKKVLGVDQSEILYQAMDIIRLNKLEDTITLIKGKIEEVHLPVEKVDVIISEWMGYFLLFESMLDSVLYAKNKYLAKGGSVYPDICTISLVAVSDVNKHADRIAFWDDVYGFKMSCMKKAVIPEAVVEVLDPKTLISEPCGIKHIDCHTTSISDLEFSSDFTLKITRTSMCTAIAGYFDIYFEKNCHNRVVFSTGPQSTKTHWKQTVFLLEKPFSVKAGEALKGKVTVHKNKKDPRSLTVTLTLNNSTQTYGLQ", "assay": "PRMT family radioactive assay", "format": "biochemical"}, "[2]": {"biological_target": "PRMT8 (Homo sapiens, UniProt Q9NR22)", "sequence (Q9NR22 whole entry)": "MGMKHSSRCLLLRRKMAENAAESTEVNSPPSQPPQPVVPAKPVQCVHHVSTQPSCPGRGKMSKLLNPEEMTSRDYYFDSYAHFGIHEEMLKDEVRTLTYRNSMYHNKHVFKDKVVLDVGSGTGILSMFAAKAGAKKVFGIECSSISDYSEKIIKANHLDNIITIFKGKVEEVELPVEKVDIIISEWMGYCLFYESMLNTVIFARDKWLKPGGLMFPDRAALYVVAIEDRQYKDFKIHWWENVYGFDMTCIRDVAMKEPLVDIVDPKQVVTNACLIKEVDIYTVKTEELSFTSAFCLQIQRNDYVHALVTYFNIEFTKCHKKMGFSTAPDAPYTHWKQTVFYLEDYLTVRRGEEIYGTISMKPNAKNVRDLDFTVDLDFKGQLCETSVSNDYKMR", "assay": "PRMT family radioactive assay", "format": "biochemical"}, "[3]": {"biological_target": "PRMT5/MEP50 (Homo sapiens, UniProt O14744)", "sequence (O14744 whole entry)": "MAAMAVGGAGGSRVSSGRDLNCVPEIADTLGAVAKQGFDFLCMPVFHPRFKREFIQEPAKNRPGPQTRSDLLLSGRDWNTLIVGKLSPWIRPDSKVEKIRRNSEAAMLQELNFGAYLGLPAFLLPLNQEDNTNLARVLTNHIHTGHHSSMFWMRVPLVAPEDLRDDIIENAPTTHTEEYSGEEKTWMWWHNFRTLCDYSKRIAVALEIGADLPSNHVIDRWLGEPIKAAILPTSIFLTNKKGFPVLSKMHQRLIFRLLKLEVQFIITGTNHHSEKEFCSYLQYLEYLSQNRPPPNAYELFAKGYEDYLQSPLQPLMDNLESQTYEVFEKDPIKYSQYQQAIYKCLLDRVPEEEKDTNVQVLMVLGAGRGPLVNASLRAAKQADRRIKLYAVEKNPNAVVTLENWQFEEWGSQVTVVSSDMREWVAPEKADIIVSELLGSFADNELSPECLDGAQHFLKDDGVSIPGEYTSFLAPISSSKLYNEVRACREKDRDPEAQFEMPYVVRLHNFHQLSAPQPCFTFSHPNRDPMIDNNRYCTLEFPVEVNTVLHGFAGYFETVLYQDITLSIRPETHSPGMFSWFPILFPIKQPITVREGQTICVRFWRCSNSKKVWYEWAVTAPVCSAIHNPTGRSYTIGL", "sequence (Q9BQA1 whole entry partner)": "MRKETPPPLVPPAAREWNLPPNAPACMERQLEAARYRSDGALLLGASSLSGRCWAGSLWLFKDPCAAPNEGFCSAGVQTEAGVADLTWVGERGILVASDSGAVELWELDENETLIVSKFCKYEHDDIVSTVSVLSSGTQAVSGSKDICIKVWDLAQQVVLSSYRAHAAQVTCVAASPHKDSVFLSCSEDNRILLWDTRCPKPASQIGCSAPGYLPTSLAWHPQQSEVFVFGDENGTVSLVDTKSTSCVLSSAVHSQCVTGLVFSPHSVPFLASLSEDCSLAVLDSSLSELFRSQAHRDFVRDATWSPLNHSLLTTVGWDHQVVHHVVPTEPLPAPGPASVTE", "assay": "PRMT family radioactive assay", "format": "biochemical", "conditions": "60 minute SAM:Enzyme:Compound A preincubation"}, "[4]": {"biological_target": "PRMT9 (Homo sapiens, UniProt Q6P2P2)", "sequence (Q6P2P2 whole entry)": "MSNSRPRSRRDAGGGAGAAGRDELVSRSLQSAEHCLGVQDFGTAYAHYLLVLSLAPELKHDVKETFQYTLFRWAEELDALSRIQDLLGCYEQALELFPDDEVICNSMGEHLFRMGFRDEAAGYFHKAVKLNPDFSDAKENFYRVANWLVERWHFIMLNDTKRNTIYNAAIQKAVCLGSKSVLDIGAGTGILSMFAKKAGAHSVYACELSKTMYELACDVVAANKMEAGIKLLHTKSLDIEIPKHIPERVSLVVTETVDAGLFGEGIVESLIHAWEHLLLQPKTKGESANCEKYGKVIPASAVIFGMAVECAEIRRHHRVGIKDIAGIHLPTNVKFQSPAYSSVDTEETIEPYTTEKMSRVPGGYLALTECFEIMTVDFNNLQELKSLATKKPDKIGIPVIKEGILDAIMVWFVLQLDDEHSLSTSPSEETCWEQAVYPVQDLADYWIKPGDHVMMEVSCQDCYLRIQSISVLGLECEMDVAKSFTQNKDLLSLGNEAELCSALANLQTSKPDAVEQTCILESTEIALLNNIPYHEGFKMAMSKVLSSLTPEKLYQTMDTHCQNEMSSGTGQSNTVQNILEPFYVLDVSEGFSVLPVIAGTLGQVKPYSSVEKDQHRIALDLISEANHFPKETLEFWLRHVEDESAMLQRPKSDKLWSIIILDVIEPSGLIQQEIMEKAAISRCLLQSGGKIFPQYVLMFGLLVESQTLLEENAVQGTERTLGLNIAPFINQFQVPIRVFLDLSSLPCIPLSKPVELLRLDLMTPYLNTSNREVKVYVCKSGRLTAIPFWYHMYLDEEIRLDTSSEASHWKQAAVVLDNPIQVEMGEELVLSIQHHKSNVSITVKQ", "assay": "PRMT family radioactive assay", "format": "biochemical", "conditions": "60 minute SAM:Enzyme:Compound A preincubation"}, "[5]": {"tested_on": "A498", "conditions": "A498, ccRCC, 6-day", "method": "(§1) The growth of all cell lines was evaluated over time across a wide range of seeding densities to identify conditions that permitted proliferation throughout the entire 6-day assay. Cells were plated at the optimal seeding density and after overnight incubation, a 20-point 2-fold titration of compound was added and plates were incubated for 6 days. A replicate plate of cells was harvested at the time of compound addition to quantify the starting number of cells (T0). Values obtained after the 6 day treatment were expressed as a function of the T0 value and plotted against compound concentration. The T0 value was normalized to 100% and represents the number of cells at the time of compound addition. The data were fit with a 4 parameter equation to generate a concentration response curve and the growth IC50 (gIC50) was determined. The gIC50 is the midpoint of the ‘growth window’, the difference between the number of cells at the time of compound addition (To) and the number of cells after 6 days (DMSO control). The growth-death assay can be used to quantify the net population change, clearly defining cell death (cytotoxicity) as fewer cells compared to the number at the time of compound addition (T0)."}, "[6]": {"tested_on": "AML cell lines", "conditions": "10 cell lines", "method": "as §1"}, "[7]": {"tested_on": "Bladder cancer cell lines", "conditions": "18 cell lines", "method": "as §1"}, "[8]": {"tested_on": "Breast cancer cell lines", "conditions": "percent of cell lines, 29 cell lines", "method": "as §1"}, "[9]": {"tested_on": "COLO741", "conditions": "COLO741, melanoma, 6-day", "method": "as §1"}, "[10]": {"tested_on": "Colon cancer cell lines", "conditions": "percent of cell lines, 34 cell lines", "method": "as §1"}, "[11]": {"tested_on": "HT144", "conditions": "HT144, melanoma, 6-day", "method": "as §1"}, "[12]": {"tested_on": "Lymphoma cell lines", "conditions": "59 cell lines", "method": "as §1"}, "[13]": {"tested_on": "Melanoma cell lines", "conditions": "7 cell lines", "method": "as §1"}, "[14]": {"tested_on": "NOMO-1", "conditions": "NOMO-1, AML subtype M5, 6-day", "method": "as §1"}, "[15]": {"tested_on": "SK-MEL-2", "conditions": "SK-MEL-2, melanoma, 6-day", "method": "as §1"}, "[16]": {"tested_on": "SW156", "conditions": "SW156, ccRCC, 6-day", "method": "as §1"}, "[17]": {"tested_on": "arginine methylation (ADMA, MMA, SDMA) in Toledo cells", "assay": "Durability of arginine methylation changes after compound washout (western)", "format": "cell-based, human", "conditions": "0.4 μM for 72 hours, then washout", "method": "(A) Stability of changes to ADMA. […] (B) Representative western blots of arginine methylation marks. Regions quantified for (A) are denoted by black bars on the side of the gel.\nCells were then washed, cultured in Compound A-free media, samples were collected daily through 120 hours, and arginine methylation levels were examined by western analysis. […] SDMA appeared to continue to increase even after 6 hours of washout. This is consistent with the continued increase observed through 120 hours without any obvious plateau (FIG. 12) coupled with the durable increase in MMA that has not yet returned to baseline after washout. Durability of each modification generally reflected the kinetics of arginine methylation changes brought about by Compound A, with MMA being the most rapid."}, "[18]": {"tested_on": "OCI-Ly1", "description": "(§2) FIG. 18: Propidium iodide FACS analysis of cell cycle in human lymphoma cell lines. […] Data represents the average±SEM of biological replicates, n=2."}, "[19]": {"tested_on": "Toledo", "description": "as §2"}, "[20]": {"tested_on": "U2932", "description": "as §2"}, "[21]": {"tested_on": "Toledo (human DLBCL) xenograft", "conditions": "for Body weight Difference (vs. vehicle) / Regression: Toledo (DLBCL), Day 28"}, "[22]": {"tested_on": "Toledo (human DLBCL) xenograft", "conditions": "for Body weight Difference (vs. vehicle): Toledo (DLBCL), Day 25"}, "[23]": {"tested_on": "human renal cell carcinoma xenografts (ACHN)", "conditions": "for Body weight Difference (vs. vehicle) / Regression: ACHN (ccRCC)"}, "[24]": {"tested_on": "ccRCC cell lines", "conditions": "only at highest concentration"}, "[25]": {"conditions": "60 minute SAM:Enzyme:Compound A preincubation"}, "[26]": {"conditions": "600 QD mg/kg oral, arm terminated at day 31"}}, "note": "Like-named read-outs stand apart in the source and are kept apart here."}
{"molecule": "CCOCC1(COCC)CCC(c2n[nH]cc2CN(C)CCNC)CC1", "note": "[Compound A]", "values": [{"measurement": "inhibition of activity", "setting": "[1]; [25]", "value": "inhibited the activity"}, {"measurement": "time dependence of inhibition", "setting": "[1]; increasing preincubation times", "value": "no time dependent behavior"}, {"measurement": "inhibition of activity", "setting": "[2]; [25]", "value": "inhibited the activity"}, {"measurement": "time dependence of inhibition", "setting": "[2]; increasing preincubation times", "value": "time dependent inhibitor"}, {"measurement": "inhibition of activity", "setting": "[3]", "value": "failed to inhibit"}, {"measurement": "inhibition of activity", "setting": "[4]", "value": "failed to inhibit"}, {"measurement": "Ymin − T0", "setting": "[5]", "value": 313.4}, {"measurement": "number of cell lines with induced cytotoxicity", "setting": "[6]; 6-day proliferation assay", "value": 5}, {"measurement": "% Cytotoxic", "setting": "[6]; percent of cell lines", "value": 50, "unit": "%"}, {"measurement": "% gIC100 < 2", "setting": "[6]; percent of cell lines", "value": 0, "unit": "%"}, {"measurement": "Median gIC100", "setting": "[7]; 6-day proliferation", "value": 29.33, "unit": "µM"}, {"measurement": "% Cytotoxic", "setting": "[7]; percent of cell lines", "value": 0, "unit": "%"}, {"measurement": "% gIC100 < 2", "setting": "[7]; percent of cell lines", "value": 0, "unit": "%"}, {"measurement": "% Cytotoxic", "setting": "[8]", "value": 10, "unit": "%"}, {"measurement": "% gIC100 < 2", "setting": "[8]", "value": 0, "unit": "%"}, {"measurement": "Ymin − T0", "setting": "[9]", "value": 12.5}, {"measurement": "gIC100", "setting": "[9]", "value": "28.55 ± 1.40", "unit": "µM"}, {"measurement": "% Cytotoxic", "setting": "[10]", "value": 3, "unit": "%"}, {"measurement": "% gIC100 < 2", "setting": "[10]", "value": 0, "unit": "%"}, {"measurement": "Ymin − T0", "setting": "[11]", "value": 124.9}, {"measurement": "gIC100", "setting": "[11]", "value": "29.33 ± 0.00", "unit": "µM"}, {"measurement": "Median gIC100", "setting": "[12]; 6-day proliferation", "value": 21.62, "unit": "µM"}, {"measurement": "% Cytotoxic", "setting": "[12]; percent of cell lines", "value": 54, "unit": "%"}, {"measurement": "% gIC100 < 2", "setting": "[12]; percent of cell lines", "value": 14, "unit": "%"}, {"measurement": "Median gIC100", "setting": "[13]; 6-day proliferation", "value": 29.33, "unit": "µM"}, {"measurement": "% Cytotoxic", "setting": "[13]; percent of cell lines", "value": 0, "unit": "%"}, {"measurement": "% gIC100 < 2", "setting": "[13]; percent of cell lines", "value": 0, "unit": "%"}, {"measurement": "gIC100", "setting": "[14]", "value": "29.33 ± 0.00", "unit": "µM"}, {"measurement": "Ymin − T0", "setting": "[14]; negative = cell death", "value": 259.1}, {"measurement": "Ymin − T0", "setting": "[15]", "value": 35.9}, {"measurement": "gIC100", "setting": "[15]", "value": 22.37, "unit": "µM"}, {"measurement": "Ymin − T0", "setting": "[16]", "value": 346.7}, {"measurement": "time for ADMA to return to baseline after washout", "setting": "[17]", "value": "≤ 24", "unit": "h"}, {"measurement": "time for MMA to return to baseline after washout", "setting": "[17]", "value": "≤ 24", "unit": "h"}, {"measurement": "time for SDMA to return to baseline after washout", "setting": "[17]", "value": "≤ 96", "unit": "h"}, {"measurement": "concentration giving accumulation of cells in sub-G1", "setting": "[18]", "value": 10, "unit": "µM"}, {"measurement": "concentration giving accumulation of cells in sub-G1", "setting": "[19]; after 3 days", "value": "≥ 1000", "unit": "nM"}, {"measurement": "concentration giving increase in sub-G1 population", "setting": "[19]; by day 7", "value": "≥ 100", "unit": "nM"}, {"measurement": "concentration giving accumulation of cells in sub-G1", "setting": "[20]", "value": 10, "unit": "µM"}, {"measurement": "Body weight Difference (vs. vehicle)", "setting": "[21]; 150 QD mg/kg oral", "value": "−4", "unit": "%"}, {"measurement": "Body weight Difference (vs. vehicle)", "setting": "[21]; 300 QD mg/kg oral", "value": "−3", "unit": "%"}, {"measurement": "Regression", "setting": "[21]; 300 QD mg/kg oral", "value": 37, "unit": "%"}, {"measurement": "Body weight Difference (vs. vehicle)", "setting": "[21]; 450 QD mg/kg oral", "value": "−8", "unit": "%"}, {"measurement": "Regression", "setting": "[21]; 450 QD mg/kg oral", "value": 58, "unit": "%"}, {"measurement": "Body weight Difference (vs. vehicle)", "setting": "[21]; 600 QD mg/kg oral", "value": "−7", "unit": "%"}, {"measurement": "Regression", "setting": "[21]; 600 QD mg/kg oral", "value": 62, "unit": "%"}, {"measurement": "doses at which regressions were observed", "setting": "[21]; Toledo xenograft, oral daily, 28 days", "value": "≥ 300", "unit": "mg/kg"}, {"measurement": "body weight loss", "setting": "[21]; any dose group, 150-600 mg/kg daily", "value": "no significant body weight loss"}, {"measurement": "Body weight Difference (vs. vehicle)", "setting": "[22]; 37.5 QD mg/kg oral", "value": "−5", "unit": "%"}, {"measurement": "Body weight Difference (vs. vehicle)", "setting": "[22]; 75 BID mg/kg oral", "value": "−4", "unit": "%"}, {"measurement": "Body weight Difference (vs. vehicle)", "setting": "[22]; 75 QD mg/kg oral", "value": "−5", "unit": "%"}, {"measurement": "Body weight Difference (vs. vehicle)", "setting": "[22]; 150 QD mg/kg oral", "value": "−7", "unit": "%"}, {"measurement": "body weight loss", "setting": "[22]; any dose group, 37.5-150 mg/kg QD or 75 mg/kg BID", "value": "No significant body weight loss"}, {"measurement": "body weight loss", "setting": "[23]; 600 mg/kg daily", "value": "Significant body weight loss"}, {"measurement": "Body weight Difference (vs. vehicle)", "setting": "[23]; 150 QD mg/kg oral, Day 59", "value": "−3", "unit": "%"}, {"measurement": "Body weight Difference (vs. vehicle)", "setting": "[23]; 300 QD mg/kg oral, Day 59", "value": "−4", "unit": "%"}, {"measurement": "Regression", "setting": "[23]; 300 QD mg/kg oral, Day 59", "value": 2, "unit": "%"}, {"measurement": "Body weight Difference (vs. vehicle)", "setting": "[23]; 450 QD mg/kg oral, Day 59", "value": "−7", "unit": "%"}, {"measurement": "Regression", "setting": "[23]; 450 QD mg/kg oral, Day 59", "value": 15, "unit": "%"}, {"measurement": "Body weight Difference (vs. vehicle)", "setting": "[23]; [26]", "value": "−17", "unit": "%"}, {"measurement": "Regression", "setting": "[23]; [26]", "value": 6, "unit": "%"}, {"measurement": "doses at which regressions were observed", "setting": "[23]; ACHN xenograft, oral daily", "value": "≥ 300", "unit": "mg/kg"}, {"measurement": "concentration at which caspase cleavage occurred", "setting": "[24]", "value": 30, "unit": "µM"}]}
